Measured values reported in patent US4036957A, “Phenoxy compounds in combinations to suppress gastric bleeding in aspirin therapy” (priority 1975, dated 1977).
Read-outs that look alike come from different tables or passages of the source.

Experiments:
[1] = system: aspirin-induced bleeding; conditions: rat; for Gastric Bleeding Index / Percent Decrease In Mucosal Hemorrhage vs. Control / Total Hemoglobin Loss / Volume Gastric Secretion: aspirin 375 p.o.; for Total Hemoglobin Loss / Volume Gastric Secretion: ± S.E.
Experimental: The effect of glyceryl guaiacolate (Compound 8) on aspirin-induced bleeding in rats was studied using the following procedure. Female Sprague-Dawley rats, weighing 140-160 g. and fasted for 24 hrs. on wire were divided into groups of 10 animals each. All animals were anesthetized with Metofane® and a ligature placed at the pyloric-duodenal junction. Groups serving as controls received normal saline (4.0 ml/kg, i.p.). Some groups received normal saline and in addition were given aspirin (375 mg/kg, p.o.) in artificial gastric juice; the remaining groups received aspirin in the same amount and also glyceryl guaiacolate 30 min. prior to the aspirin. The aspirin was administered in artificial gastric juice (USP, […]) in a total volume of 2 ml. to each rat. Following a recovery period of 1 hr. the animals received saline, aspirin and glyceryl guaiacolate in the amounts and by the routes indicated. In most of the experiments, 90 min. following aspirin the rats were sacrificed by cervical dislocation. The stomachs were removed and gastric contents collected for further analysis. […] Hemoglobin loss produced by the aspirin was determined by the colorimetric method of Bing and Baker (J. Biol. Chem. 92: 589, 1931). The condition of the gastric mucosa was also assessed by determining the incidence and severity of damage using the scoring system described hereinabove to obtain the "Gastric Bleeding Index".
Following the procedure of Example 26, methocarbamol (Compound 3 ) was tested further in rats via intraperitoneal and intraduodenal administration.

[2] = system: aspirin-induced gastric bleeding; assay: Prevention of aspirin-induced gastric bleeding in pyloric-ligated rats, i.p. test compound (Examples 1-22); type: in vivo, Female Sprague-Dawley rats; conditions: rat, aspirin 375 mg/kg p.o.; for change in vivo at 100 mg/kg: ip
Experimental: The prevention of aspirin-induced bleeding in rats was determined by the following procedure. Female Sprague-Dawley rats weighing 150-180 g. were fasted for 24 hours on wire and divided into groups of six animals each. The rats were anesthetized and a ligature placed at the pyloric-duodenal junction. Groups serving as controls received normal saline (4.0 ml/kg, i.p.). […] Some of the compounds were tested at 50 mg/kg, i.p. The rats were sacrificed 60 min. after aspirin administration by cervical dislocation. The volume of the gastric contents was determined and compared against that produced with the same amount of aspirin for change in volume. […] (Gradation between 0 to 40 is on an even scale).

[3] = system: aspirin-induced gastric bleeding; assay: Aspirin-induced gastric bleeding in Cr51 labeled Heidenhain pouch dogs, oral; type: in vivo; conditions: dog
Experimental: Methocarbamol (Compound 3) and Metaxalone (Compound 15) were evaluated for their effectiveness upon oral administration against aspirin-induced gastric bleeding in dogs. Three female chronic Heindehain pouch dogs were used. Red blood cells from each dog were labeled with Cr^51. The dogs were fasted 24 hours prior to any study and three days elapsed between studies. On experimental days each fundic pouch was rinsed with tepid tap water and then filled with 10 ml. of normal saline. After 30 minutes the saline was replaced with 10 ml. of artificial gastric juice (USP, pH 1.3). The dogs were given Compound 3 (200 mg/kg) or Compound 15 (50 and 100 mg/kg) or placebo (starch) orally in gelatin capsules. The 10 ml. of gastric juice was removed from the pouch after 60 minutes and replaced with another 10 ml. of juice containing 100 mg. of aspirin (80 mesh). This was likewise removed after 60 minutes. All samples collected from the pouches were counted for radio-activity using a deep-well counter. From the amount of radio-activity present in the gastric samples, the loss of blood into the pouch was determined. The results are shown in Table 3 and show the effectiveness of orally administering Compounds 3 and 15 in preventing aspirin-induced gastric bleeding.

[4] = 100 mg/kg intraduodenal, P <0.05
[5] = 200 mg/kg intraduodenal, P <0.05
[6] = 400 mg/kg intraduodenal, P <0.05

COc1ccccc1OCC(O)COC(N)=O (stereo not drawn) [Compound 3, 3-(o-methoxyphenoxy)-1,2-propanediol-1-carbamate]
Gastric Bleeding Index ([1]; 50 mg/kg i.p.): 34 ± 2
Percent Decrease In Mucosal Hemorrhage vs. Control ([1]; 50 mg/kg i.p.): none
Total Hemoglobin Loss ([1]; 50 mg/kg i.p.): 22.4 ± 2.4 mg
Volume Gastric Secretion ([1]; 50 mg/kg i.p.): 6.2 ± 0.5 mL
Percent Decrease In Mucosal Hemorrhage vs. Control ([1]; 100 mg/kg i.p.): 62%
Volume Gastric Secretion ([1]; 100 mg/kg i.p.): 5.5 ± 0.3 mL
Total Hemoglobin Loss ([1]; 100 mg/kg i.p., P <0.05): 11.6 ± 3.6 mg
Gastric Bleeding Index ([1]; 100 mg/kg i.p., P <0.05): 13 ± 6
Gastric Bleeding Index ([1]; 100 mg/kg intraduodenal): 24 ± 3
Percent Decrease In Mucosal Hemorrhage vs. Control ([1]; 100 mg/kg intraduodenal): 27%
Total Hemoglobin Loss [1, 4]: 27.8 ± 0.1 mg
Volume Gastric Secretion [1, 4]: 5.0 ± 0.1 mL
Percent Decrease In Mucosal Hemorrhage vs. Control ([1]; 200 mg/kg i.p.): 97%
Total Hemoglobin Loss ([1]; 200 mg/kg i.p., P <0.05): 1.5 ± 0.5 mg
Volume Gastric Secretion ([1]; 200 mg/kg i.p., P <0.05): 3.7 ± 0.4 mL
Gastric Bleeding Index ([1]; 200 mg/kg i.p., P <0.05): 1 ± 1
Percent Decrease In Mucosal Hemorrhage vs. Control ([1]; 200 mg/kg intraduodenal): 67%
Total Hemoglobin Loss [1, 5]: 7.0 ± 2.8 mg
Volume Gastric Secretion [1, 5]: 3.5 ± 0.6 mL
Gastric Bleeding Index [1, 5]: 11 ± 6
Percent Decrease In Mucosal Hemorrhage vs. Control ([1]; 400 mg/kg intraduodenal): 99%
Total Hemoglobin Loss [1, 6]: 5.1 ± 3.6 mg
Volume Gastric Secretion [1, 6]: 1.3 ± 0.1 mL
Gastric Bleeding Index [1, 6]: 0.4 ± 1
reducing bleeding (in words) ([1]; one part by weight methocarbamol to 3.75 parts aspirin): significantly effective
change in vivo at 100 mg/kg ([2]; 1 h, 100 mg/kg i.p., read-out: Percent Decrease in Mucosal Bleeding vs Control): -43%
change in vivo at 100 mg/kg ([2]; 100 mg/kg i.p. (column head states no dose), read-out: Vol. % Decrease in Gastric Secretion): -18.3%
Gastric Bleeding Index ([2]; score 0 to 40, 100 mg/kg i.p. (column head states no dose)): 21.7
% Protection ([3]; 200 mg/kg p.o.): 79%
Mucosal Blood Loss, HCl + Aspirin ([3]; 200 mg/kg p.o., ± S.E.): 6.6 ± 3.1 µL
Mucosal Blood Loss, HCl ([3]; 200 mg/kg p.o., ± S.E., without aspirin): 3.5 ± 0.7 µL
% Change from Control (mucosal blood loss) ([3]; 200 mg/kg p.o., P > .05): +88%
preventing aspirin-induced gastric bleeding (in words) ([3]; oral): effectiveness
